The text below walks through data of ChEMBL document CHEMBL5390252, “Imidazo[2,1-b]thiazole based indoleamine-2,3-dioxygenase 1 (IDO1) inhibitor: Structure based design, synthesis, bio-evaluation and docking studies” (Bioorg Med Chem Lett, 2023).

Molecules are shown by their SMILES.

As a reminder, the IC50 is the concentration at which inhibition is half-maximal. By Ki is commonly meant a measure of affinity in units of concentration, obtained from inhibition or displacement. For orientation: inhibition means the percentage by which the read-out fell short of the control.

One data set addresses T1, Indoleamine 2,3-dioxygenase 1 (Homo sapiens, UniProt P14902). Kind of data set: Inhibition of human IDO1 using L-tryptophan as substrate assessed as reduction in N-formyl kynurenine formation by UV-visible spectroscopic analysis.
Settings: not given
Target sequence in this assay (P14902 whole entry): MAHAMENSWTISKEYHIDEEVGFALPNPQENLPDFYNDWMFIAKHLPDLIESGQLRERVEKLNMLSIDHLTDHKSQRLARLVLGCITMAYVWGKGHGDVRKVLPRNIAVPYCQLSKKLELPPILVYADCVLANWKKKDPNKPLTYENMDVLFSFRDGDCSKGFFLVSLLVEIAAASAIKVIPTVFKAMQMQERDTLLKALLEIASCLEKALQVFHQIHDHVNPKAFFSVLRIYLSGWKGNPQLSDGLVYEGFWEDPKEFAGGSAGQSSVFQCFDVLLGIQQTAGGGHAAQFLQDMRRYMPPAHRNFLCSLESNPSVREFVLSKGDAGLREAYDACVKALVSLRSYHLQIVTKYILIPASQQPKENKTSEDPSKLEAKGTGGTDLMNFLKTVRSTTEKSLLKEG
Turning to `CC(C)(C)CC(C)(C)Nc1c(-c2cccc(C#N)c2)nc2sccn12`, the IC50 is 477 µM. In the case of `Cc1n[nH]c2c1[C@@H](c1ccc(F)c(F)c1)c1c(N)n[nH]c1O2`, the IC50 is 0.151 µM. The same measure, in the same setting: to `O=S(=O)(Nc1cccc2cnccc12)c1ccc2c(c1)OCCO2` belongs 0.056 µM; to `CC(C)(C)Nc1c(-c2ccc(-c3ccccc3)cc2)nc2sccn12`, 23 µM; to `CC(C)(C)CC(C)(C)Nc1c(-c2ccc(C(F)(F)F)cc2)nc2sccn12`, 1020 µM. With `CC(C)(C)Nc1c(-c2ccc(C(F)(F)F)cc2)nc2sccn12`, the IC50 turned out to be 1290 µM. As for `COc1ccc(-c2nc3sccn3c2NC(C)(C)CC(C)(C)C)cc1O`, the IC50 came out at 25 µM.

As for `O=C(Cc1ccccc1)Nc1ccc(CCOc2ccccc2-c2cnc[nH]2)cc1`, the IC50 is 0.028 µM. As for `CC(C)(C)CC(C)(C)Nc1c(-c2ccc(-c3ccccc3)cc2)nc2sccn12`, the 50% inhibitory concentration (IC50) worked out at 47 µM. Same read-out and setting: as for `CC(C)(C)CC(C)(C)Nc1c(-c2ccccc2)nc2sccn12`, the figure is 465 µM; as for `CC(C)(C)Nc1c(-c2ccncc2)nc2sccn12`, 908 µM; as for `COc1ccc(-c2nc3cc(C)ccn3c2NC(C)(C)C)cc1O`, 287 µM. On the same count and under the same terms, to `c1ccc(-c2ccc(-c3nc4sccn4c3NCCN3CCOCC3)cc2)cc1` belongs 106 µM; to `COc1cccc(-c2nc3sccn3c2NC(C)(C)C)c1`, 281 µM. `COc1ccc(-c2nc3sccn3c2NCCN2CCOCC2)cc1O`: the IC50 was 73 µM. Take `CC(C)(C)Nc1c(-c2ccccc2)nc2sccn12`: the IC50 was 43 µM. As to `CC(C)(C)Nc1c(-c2ccc3c(c2)OCO3)nc2sccn12`, the IC50 came out at 1450 µM. Regarding `CC(C)(C)CC(C)(C)Nc1c(-c2ccncc2)nc2sccn12`, the IC50 stood at 691 µM. Still for that read-out and setting: to `COc1ccc(-c2nc3sccn3c2NC(C)(C)C)cc1O` belongs 13 µM.

As for `O[C@H](c1c(C2CC2)c(Cl)cc2cncn12)C1CC2CCC1CC2` (stereo partly specified), the 50% inhibitory concentration (IC50) was found to be 0.0096 µM.

The next data set deals with T1, Indoleamine 2,3-dioxygenase 1. Put plainly: Inhibition of human IDO1 using L-tryptophan as substrate assessed as reduction in N-formyl kynurenine formation by measuring inhibition constant by UV-visible spectroscopic analysis.
Settings: not given
Target sequence in this assay (P14902 whole entry): as above
As for `CCNCCc1c[nH]c2c1C(=O)C(c1cccnc1)=CC2=O`, the inhibition constant (Ki) was determined as 0.16 µM.

The next data set has the same target. To be noted: dose 1.0 mM.
Target sequence in this assay (P14902 whole entry, looked up): as the sequence (P14902 whole entry) above
`c1ccc2c(c1)[nH]c1cnccc12` came in with an inhibition of 17%.

A further data set has the same target. Kind of data set: Inhibition of human IDO1 using L-tryptophan as substrate assessed as reduction in N-formyl kynurenine formation at 200 uM by UV-visible spectroscopic analysis relative to control.
Settings: not given
Target sequence in this assay (P14902 whole entry, looked up): as the sequence (P14902 whole entry) above
Turning to `C[C@H]1c2[nH]c3ccccc3c2C[C@]2(C)C(=O)N(C)C(=S)N12`, the inhibition was 29%.

Test system in a further data set: not listed separately
Put plainly: Cytotoxicity against HEK293 cells assessed as cell viability at 10 to 100 uM measured after 24 hrs by alamar blue assay relative to control. It counts as toxicity, cell-based. Particulars: human, dose 10-100 µM, read-out: Activity.
In the case of `COc1ccc(-c2nc3sccn3c2NC(C)(C)C)cc1O`, the viability at 24 h, up to 100 µM is 100%.

The next data set deals with HEK293. Put plainly: Cytotoxicity against HEK293 cells assessed as reduction in cell viability at 100 uM measured after 24 hrs by alamar blue assay relative to control. It counts as toxicity, cell-based. Particulars: human, hek293, 24 h.
Regarding `CC(C)(C)Nc1c(-c2ccc(-c3ccccc3)cc2)nc2sccn12`, the Activity is given as ~ 85%.

Test system in another data set: not listed separately
Put plainly: Cytotoxicity against HEK293 cells assessed as cell viability at 10 to 50 uM measured after 24 hrs by alamar blue assay relative to control. It counts as toxicity, cell-based. Particulars: human, dose 10-50 µM, read-out: Activity. On the technique in general: Alamar Blue is a resazurin reagent that responds to reducing activity.
As to `CC(C)(C)Nc1c(-c2ccc(-c3ccccc3)cc2)nc2sccn12`, the viability at 24 h, up to 50 µM came out at 100%.
